Test results from patent publication US12252524B2, “GIP/GLP1 co-agonist compounds” (Eli Lilly and Company, priority 2018, dated 2025).
Numbered stars: 1 amine (or outer) side, 2 acyl side, 3 side chain; on linkers, the order of the positions; unused ones are H or OH. Square brackets hold non-standard residues; d marks the D form. Side chains are listed from the residue outwards. Peptide text beside a SMILES is read from it. * marks the point of attachment. C20 diacid = O=C(O)CCCCCCCCCCCCCCCCCCC(=O)*; C18 diacid = O=C(O)CCCCCCCCCCCCCCCCC(=O)*; αMePhe(2-F) = C[C@](N)(Cc1ccccc1F)C(=O)O; C16 diacid = O=C(O)CCCCCCCCCCCCCCC(=O)*; γGlu = O=C(O)[C@H](CCC(=O)[*:2])N[*:1]; 4Pal = N[C@@H](Cc1ccncc1)C(=O)O; αMeL = CC(C)C[C@](C)(N)C(=O)O; Dab = NCC[C@H](N)C(=O)O; AEEA = NCCOCCOCC(=O)O; Aib = CC(C)(N)C(=O)O

Assays:
[1] = target: human GLP-1 receptor (GLP-1R) (Homo sapiens, UniProt P43220); test: cAMP pharmacological functional assay in presence of casein, hGLP-1R; type: cell-based; settings: HEK293 cells expressing hGLP-1R, 0.1% Casein, geometric mean; read-out: hGLP1R cAMP Rel EC50 nM (SEM, n)
[2] = target: human GLP-1R (Homo sapiens, UniProt P43220); test: [125I]-GLP-1 binding (SPA), human GLP-1 receptor; set-up: expressed in transfected cells; crude membranes; settings: read-out: hGLP1R Ki, (nM) (SEM, n)
Method in brief: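 Membranes: hypotonic lysis (50 mM Tris HCl, pH 7.5, protease inhibitors), Potter-Elvehjem homogenization, high-speed pellet (35000×g 1 h or 25000×g 30 min, 4° C.). Buffer: 25 mM HEPES pH 7.4, 2.5 mM CaCl2, 1 mM MgCl2. Four-parameter IC50 fit; Ki as geometric mean ± SEM.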

[3] = target: T1, gastric inhibitory peptide receptor (GIPR) (Homo sapiens, UniProt P48546); test: cAMP pharmacological functional assay in presence of casein, hGIPR; type: cell-based; settings: HEK293 cells expressing hGIPR, 0.1% Casein, geometric mean; read-out: hGIPR cAMP Rel EC50 nM (SEM, n)
T1 sequence (P48546 22-466): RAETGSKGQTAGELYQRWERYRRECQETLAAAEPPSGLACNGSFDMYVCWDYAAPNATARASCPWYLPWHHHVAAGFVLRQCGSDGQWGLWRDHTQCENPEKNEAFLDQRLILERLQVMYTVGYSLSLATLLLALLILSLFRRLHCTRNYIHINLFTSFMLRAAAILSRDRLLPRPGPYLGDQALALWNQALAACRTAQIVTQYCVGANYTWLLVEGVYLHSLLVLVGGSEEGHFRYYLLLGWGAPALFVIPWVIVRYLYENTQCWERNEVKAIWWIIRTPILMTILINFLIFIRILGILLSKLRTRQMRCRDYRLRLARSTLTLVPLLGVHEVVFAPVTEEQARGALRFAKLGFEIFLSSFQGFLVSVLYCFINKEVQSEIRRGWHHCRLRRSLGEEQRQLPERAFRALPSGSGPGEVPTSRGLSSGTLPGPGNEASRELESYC

[4] = target: T2, human Gcg receptor (Homo sapiens, UniProt P47871); test: [125I]-Glucagon binding (SPA), human Gcg receptor; settings: read-out: hGLcgR Ki, nM (SEM, n)
T2 construct: expressed in transfected cells; crude membranes
Method in brief: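 Cell pellets were lysed in hypotonic Tris buffer, pH 7.5, homogenized, and spun at low then high speed to give crude membranes. Ki was derived from the fitted IC50.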

[5] = target: T3, human GIP receptor (Homo sapiens, UniProt P48546); test: [125I]-GIP binding (SPA), human GIP receptor; settings: read-out: hGIPR Ki, nM (SEM, n)
T3 construct: expressed in transfected cells; crude membranes
T3 sequence (P48546 22-466): T1 sequence (P48546 22-466)

T2 sequence (P47871 26-477): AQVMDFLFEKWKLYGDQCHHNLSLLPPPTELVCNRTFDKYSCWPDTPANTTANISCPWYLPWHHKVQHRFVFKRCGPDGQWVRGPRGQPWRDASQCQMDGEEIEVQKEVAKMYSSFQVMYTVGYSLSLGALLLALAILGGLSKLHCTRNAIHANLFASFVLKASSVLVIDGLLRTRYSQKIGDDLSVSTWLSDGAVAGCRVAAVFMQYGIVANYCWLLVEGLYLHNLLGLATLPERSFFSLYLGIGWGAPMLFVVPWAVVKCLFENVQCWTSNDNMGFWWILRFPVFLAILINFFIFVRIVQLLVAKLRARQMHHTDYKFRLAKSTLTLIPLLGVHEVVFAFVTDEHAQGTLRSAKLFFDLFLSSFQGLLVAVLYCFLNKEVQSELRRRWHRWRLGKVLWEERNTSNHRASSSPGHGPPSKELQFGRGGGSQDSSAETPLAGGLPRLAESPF
human GLP-1R, sequence (P43220 24-463): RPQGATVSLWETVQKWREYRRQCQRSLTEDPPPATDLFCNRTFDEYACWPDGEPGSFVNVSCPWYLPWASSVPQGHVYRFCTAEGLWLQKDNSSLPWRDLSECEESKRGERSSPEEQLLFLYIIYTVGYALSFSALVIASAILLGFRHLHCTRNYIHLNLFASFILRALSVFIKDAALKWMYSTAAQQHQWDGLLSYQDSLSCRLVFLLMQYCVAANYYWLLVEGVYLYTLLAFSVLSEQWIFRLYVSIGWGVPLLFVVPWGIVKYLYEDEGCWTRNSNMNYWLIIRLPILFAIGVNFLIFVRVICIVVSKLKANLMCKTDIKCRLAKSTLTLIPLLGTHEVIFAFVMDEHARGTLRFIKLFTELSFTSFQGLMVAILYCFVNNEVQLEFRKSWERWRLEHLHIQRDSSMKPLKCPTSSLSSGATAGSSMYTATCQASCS
human GLP-1 receptor (GLP-1R), sequence (P43220 24-463): as above

Structure (SMILES)	EC50 [1] [nM]	Ki [2] [nM]	EC50 [3] [nM]	Ki [4] [nM]	Ki [5] [nM]
CC[C@H](C)[C@H](NC(=O)[C@H](CC(C)C)NC(=O)[C@H](Cc1ccc(O)cc1)NC(=O)[C@@H](CCC(=O)O)NC(=O)[C@@H](NC(=O)[C@H](Cc1ccccc1)NC(=O)[C@H](CCC(=O)O)NC(=O)C(C)(C)NC(=O)[C@H](CCC(N)=O)NC(=O)[C@H](C)NC(=O)[C@H](CCCCNC(=O)COCCOCCNC(=O)COCCOCCNC(=O)CC[C@H](NC(=O)CCCCCCCCCCCCCCCCCCC(=O)O)C(=O)O)NC(=O)[C@H](CCCCN)NC(=O)[C@H](CC(=O)O)NC(=O)[C@H](CC(C)C)NC(=O)[C@](C)(CC(C)C)NC(=O)[C@@H](NC(=O)[C@H](CO)NC(=O)[C@H](Cc1ccncc1)NC(=O)[C@H](CC(=O)O)NC(=O)[C@H](CO)NC(=O)[C@@H](NC(=O)[C@](C)(Cc1ccccc1F)NC(=O)[C@@H](NC(=O)CNC(=O)[C@H](CCC(=O)O)NC(=O)C(C)(C)NC(=O)[C@@H](N)Cc1ccc(O)cc1)[C@@H](C)O)[C@@H](C)O)[C@@H](C)CC)[C@@H](C)CC)C(=O)N[C@@H](CCC(=O)O)C(=O)NCC(=O)NCC(=O)N1CCC[C@H]1C(=O)N[C@@H](CO)C(=O)N[C@@H](CO)C(=O)NCC(=O)N[C@@H](C)C(=O)N1CCC[C@H]1C(=O)N1CCC[C@H]1C(=O)N1CCC[C@H]1C(=O)N[C@@H](CO)C(N)=O [Example 203] (H-Y[Aib]EGT[αMePhe(2-F)]TSD[4Pal]SI[αMeL]LDKK([AEEA-AEEA-γGlu-C20 diacid])AQ[Aib]EFI[dE]YLIEGGPSSGAPPPS-NH2; N-terminus assumed)	0.0679	3.9	0.0387	845	0.0337
CC[C@H](C)[C@H](NC(=O)[C@H](CC(C)C)NC(=O)[C@H](Cc1ccc(O)cc1)NC(=O)[C@@H](CCC(=O)O)NC(=O)[C@@H](NC(=O)[C@H](Cc1ccccc1)NC(=O)[C@H](CCC(=O)O)NC(=O)C(C)(C)NC(=O)[C@H](CCC(N)=O)NC(=O)[C@H](C)NC(=O)[C@H](CCCCNC(=O)COCCOCCNC(=O)COCCOCCNC(=O)CCCCCCCCCCCCCCCCC(=O)O)NC(=O)[C@H](CCC(=O)O)NC(=O)[C@H](CC(=O)O)NC(=O)[C@H](CC(C)C)NC(=O)[C@](C)(CC(C)C)NC(=O)[C@@H](NC(=O)[C@H](CO)NC(=O)[C@H](Cc1ccncc1)NC(=O)[C@H](CC(=O)O)NC(=O)[C@H](CO)NC(=O)[C@@H](NC(=O)[C@](C)(Cc1ccccc1F)NC(=O)[C@@H](NC(=O)CNC(=O)[C@H](CCC(=O)O)NC(=O)C(C)(C)NC(=O)[C@@H](N)Cc1ccc(O)cc1)[C@@H](C)O)[C@@H](C)O)[C@@H](C)CC)[C@@H](C)CC)C(=O)N[C@@H](CCC(=O)O)C(=O)NCC(=O)NCC(=O)N1CCC[C@H]1C(=O)N[C@@H](CO)C(=O)N[C@@H](CO)C(=O)NCC(=O)N[C@@H](C)C(=O)N1CCC[C@H]1C(=O)N1CCC[C@H]1C(=O)N1CCC[C@H]1C(=O)N[C@@H](CO)C(N)=O [Example 205] (H-Y[Aib]EGT[αMePhe(2-F)]TSD[4Pal]SI[αMeL]LDEK([AEEA-AEEA-C18 diacid])AQ[Aib]EFI[dE]YLIEGGPSSGAPPPS-NH2; N-terminus assumed)	0.0261	3.05	0.0281	438	0.0367
CC[C@H](C)[C@H](NC(=O)[C@H](CC(C)C)NC(=O)[C@H](Cc1ccc(O)cc1)NC(=O)[C@@H](CCC(=O)O)NC(=O)[C@@H](NC(=O)[C@H](Cc1ccccc1)NC(=O)[C@H](CCC(=O)O)NC(=O)C(C)(C)NC(=O)[C@H](CCC(N)=O)NC(=O)[C@H](C)NC(=O)[C@H](CCCCNC(=O)COCCOCCNC(=O)COCCOCCNC(=O)CCCCCCCCCCCCCCCCCCC(=O)O)NC(=O)[C@H](CCC(=O)O)NC(=O)[C@H](CC(=O)O)NC(=O)[C@H](CC(C)C)NC(=O)[C@](C)(CC(C)C)NC(=O)[C@@H](NC(=O)[C@H](CO)NC(=O)[C@H](Cc1ccncc1)NC(=O)[C@H](CC(=O)O)NC(=O)[C@H](CO)NC(=O)[C@@H](NC(=O)[C@](C)(Cc1ccccc1F)NC(=O)[C@@H](NC(=O)CNC(=O)[C@H](CCC(=O)O)NC(=O)C(C)(C)NC(=O)[C@@H](N)Cc1ccc(O)cc1)[C@@H](C)O)[C@@H](C)O)[C@@H](C)CC)[C@@H](C)CC)C(=O)N[C@@H](CCC(=O)O)C(=O)NCC(=O)NCC(=O)N1CCC[C@H]1C(=O)N[C@@H](CO)C(=O)N[C@@H](CO)C(=O)NCC(=O)N[C@@H](C)C(=O)N1CCC[C@H]1C(=O)N1CCC[C@H]1C(=O)N1CCC[C@H]1C(=O)N[C@@H](CO)C(N)=O [Example 206] (H-Y[Aib]EGT[αMePhe(2-F)]TSD[4Pal]SI[αMeL]LDEK([AEEA-AEEA-C20 diacid])AQ[Aib]EFI[dE]YLIEGGPSSGAPPPS-NH2; N-terminus assumed)	0.027	5.27	0.0409	176	0.0814
CC[C@H](C)[C@H](NC(=O)[C@H](CC(C)C)NC(=O)[C@H](Cc1ccc(O)cc1)NC(=O)[C@@H](CCC(=O)O)NC(=O)[C@@H](NC(=O)[C@H](Cc1ccccc1)NC(=O)[C@H](CCC(=O)O)NC(=O)C(C)(C)NC(=O)[C@H](CCC(N)=O)NC(=O)[C@H](C)NC(=O)[C@H](CCCCNC(=O)COCCOCCNC(=O)COCCOCCNC(=O)CC[C@H](NC(=O)CCCCCCCCCCCCCCC(=O)O)C(=O)O)NC(=O)[C@H](CCC(=O)O)NC(=O)[C@H](CC(=O)O)NC(=O)[C@H](CC(C)C)NC(=O)[C@](C)(CC(C)C)NC(=O)[C@@H](NC(=O)[C@H](CO)NC(=O)[C@H](Cc1ccc(O)cc1)NC(=O)[C@H](CC(=O)O)NC(=O)[C@H](CO)NC(=O)[C@@H](NC(=O)[C@](C)(Cc1ccccc1F)NC(=O)[C@@H](NC(=O)CNC(=O)[C@H](CCC(=O)O)NC(=O)C(C)(C)NC(=O)[C@@H](N)Cc1ccc(O)cc1)[C@@H](C)O)[C@@H](C)O)[C@@H](C)CC)[C@@H](C)CC)C(=O)N[C@@H](CCC(=O)O)C(=O)NCC(=O)NCC(=O)N1CCC[C@H]1C(=O)N[C@@H](CO)C(=O)N[C@@H](CO)C(=O)NCC(=O)N[C@@H](C)C(=O)N1CCC[C@H]1C(=O)N1CCC[C@H]1C(=O)N1CCC[C@H]1C(=O)N[C@@H](CO)C(N)=O [Example 208] (H-Y[Aib]EGT[αMePhe(2-F)]TSDYSI[αMeL]LDEK([AEEA-AEEA-γGlu-C16 diacid])AQ[Aib]EFI[dE]YLIEGGPSSGAPPPS-NH2)	0.0753	2.13	0.0371	> 1060	0.0537
CC[C@H](C)[C@H](NC(=O)[C@H](CC(C)C)NC(=O)[C@H](Cc1ccc(O)cc1)NC(=O)[C@@H](CCC(=O)O)NC(=O)[C@@H](NC(=O)[C@H](Cc1ccccc1)NC(=O)[C@H](CCC(=O)O)NC(=O)C(C)(C)NC(=O)[C@H](CCC(N)=O)NC(=O)[C@H](C)NC(=O)[C@H](CCCCNC(=O)COCCOCCNC(=O)COCCOCCNC(=O)CC[C@H](NC(=O)CCCCCCCCCCCCCCCCC(=O)O)C(=O)O)NC(=O)[C@H](CCN)NC(=O)[C@H](CC(=O)O)NC(=O)[C@H](CC(C)C)NC(=O)[C@](C)(CC(C)C)NC(=O)[C@@H](NC(=O)[C@H](CO)NC(=O)[C@H](Cc1ccc(O)cc1)NC(=O)[C@H](CC(=O)O)NC(=O)[C@H](CO)NC(=O)[C@@H](NC(=O)[C@](C)(Cc1ccccc1F)NC(=O)[C@@H](NC(=O)CNC(=O)[C@H](CCC(=O)O)NC(=O)C(C)(C)NC(=O)[C@@H](N)Cc1ccc(O)cc1)[C@@H](C)O)[C@@H](C)O)[C@@H](C)CC)[C@@H](C)CC)C(=O)N[C@@H](CCC(=O)O)C(=O)NCC(=O)NCC(=O)N1CCC[C@H]1C(=O)N[C@@H](CO)C(=O)N[C@@H](CO)C(=O)NCC(=O)N[C@@H](C)C(=O)N1CCC[C@H]1C(=O)N1CCC[C@H]1C(=O)N1CCC[C@H]1C(=O)N[C@@H](CO)C(N)=O [Example 209] (H-Y[Aib]EGT[αMePhe(2-F)]TSDYSI[αMeL]LD[Dab]K([AEEA-AEEA-γGlu-C18 diacid])AQ[Aib]EFI[dE]YLIEGGPSSGAPPPS-NH2)	0.0374	1.43	0.0308	> 1060	0.0664
